This note sets out measurements from patent EP0774249A2, “Topical composition containing specific flavanones” (UNILEVER PLC, priority 1995, dated 1997).

This experiment deals with Human Epidermal Keratinocytes. Briefly: Transglutaminase (TG-1) assay, ELISA on cultured keratinocytes. As to conditions: for TG-1 production DAY 2 / TG-1 production DAY 3 / TG-1 production DAY 1: absorbance OD 490nm; for TG-1 production DAY 2: control 0.134 (Exp. 1), 0.152 (Exp. 2), 0.174 (Exp. 3); for TG-1 production DAY 3: control 0.143 (Exp. 1), 0.200 (Exp. 2), 0.218 (Exp. 3); for TG-1 production DAY 1: control 0.154 (Exp. 1), 0.179 (Exp. 2), 0.181 (Exp. 3); for Effects on Differentiation (TG-1): 5 and 15 µg/ml, after 72 hour incubation; for activity at 10 µg/mL / activity at 25 µg/mL / activity at 50 µg/mL: Homo sapiens, Keratinocyte. The class given is cell-based. On the technique in general: ELISA stands for enzyme-linked immunosorbent assay.

Each structure is given as a SMILES string. Like-named read-outs stand apart in the source and are kept apart here.

In the case of `O=C1c2c(O)cc(O)cc2O[C@H](c2ccc(O)c(O)c2)[C@H]1O` [Taxifolin], the “Effects on Differentiation (TG-1)” value is “Increase TG-1”. Besides, where the note is “10 µg/mL”, the “TG-1 production DAY 2” value worked out at 0.204 ± 0.04, the “TG-1 production DAY 3” value is recorded as 0.231 ± 0.03 and the “TG-1 production DAY 1” value was found to be 0.153 ± 0.02. For the setting “25 µg/mL”, the “TG-1 production DAY 2” value was found to be 0.212 ± 0.03, the “TG-1 production DAY 3” value is 0.226 ± 0.02 and the “TG-1 production DAY 1” value turned out to be 0.175 ± 0.04. Also, where the note is “50 µg/mL”, the “TG-1 production DAY 2” value is reported as 0.159 ± 0.01, the “TG-1 production DAY 3” value was 0.199 ± 0.04 and the “TG-1 production DAY 1” value is 0.150 ± 0.02. The “Effects on Differentiation (TG-1)” value (listed as taxifolin) is “stimulated TG-1 production”. Also, for the setting “10, 25, 50 µg/mL, days 1 to 3 (Table 2)”, the “stimulation of differentiation (TG-1 production) against the control” value is listed as “stimulated differentiation to the same extent or higher than the control”. For the same compound, the activity at 10 µg/mL (24 h, 10 µg/mL, read-out: DAY 1 (% over control) (converted)) is 85%. Moreover, the activity at 25 µg/mL (24 h, 25 µg/mL, read-out: DAY 1 (% over control) (converted)) was 97%. Moreover, the activity at 50 µg/mL (24 h, 50 µg/mL, read-out: DAY 1 (% over control) (converted)) is 84%. In addition, the activity at 10 µg/mL (48 h, 10 µg/mL, read-out: DAY 2 (% over control) (converted)) is 117%. For the setting “48 h, 25 µg/mL, read-out: DAY 2 (% over control) (converted)”, the activity at 25 µg/mL was 122%. Also, under “48 h, 50 µg/mL, read-out: DAY 2 (% over control) (converted)”, the activity at 50 µg/mL was 92%. For the same compound, the activity at 10 µg/mL (72 h, 10 µg/mL, read-out: DAY 3 (% over control) (converted)) was 106%. In addition, where the note is “72 h, 25 µg/mL, read-out: DAY 3 (% over control) (converted)”, the activity at 25 µg/mL was 104%. Moreover, the activity at 50 µg/mL (72 h, 50 µg/mL, read-out: DAY 3 (% over control) (converted)) was 92%.
